Assay results: patent publication US20240270809A1, “ORAL GLP RECEPTOR AGONISTS” (priority 2020, published 2024)
Read-outs that look alike come from different tables or passages of the source. Positions of bridges follow the written chain, without caps; N, C: chain ends. Non-standard residues stand in square brackets, D forms with d. Residues, ends and D or L forms follow the SMILES beside them. *: point of attachment. Malonyl(2,2-Me2,histaminyl) = CC(C)(C(=O)NCCc1cnc[nH]1)C(=O)*; Ala(1H-tetrazol-5-yl) = N[C@@H](Cc1nnn[nH]1)C(=O)O; αMePhe(2-F) = C[C@](N)(Cc1ccccc1F)C(=O)O; Nle = CCCC[C@H](N)C(=O)O

How the values were obtained:
[1] = Stability of peptides in rat intestinal fluid (ratIF); settings: Sprague Dawley, undiluted rat small intestinal fluid (ratIF)
[2] = Stability of peptides in Fasted-State Simulated Gastric Fluid (FaSSGF); type: in vitro ADME; settings: FaSSGF with 0.1 mg/ml pepsin; t=30 mins, 37° C., pH 1.6, 0.1 mg/ml pepsin
Protocol: Stability of peptides was tested in Fasted-State Simulated gastric Fluid (FaSSGF) prepared according to manufacturer's protocol (Biorelevant, art. no. FFF01). […] FaSSGF was pre-incubated for 15 min at 37° C. and spiked with test and reference item working solutions. Experiments were conducted in duplicate in a non-serial manner. The total incubation volume per replicate was 150 μl. […] All samples and calibration standards (prepared in FaSSGF) were precipitated by addition of 300 μl precipitant (ACN / 2% acetic acid / 0.2% HFBA, (precipitation regent, PR)) containing internal standards (ISTD) to 150 μl sample. After incubation for 1 h at room temperature all samples were centrifuged for 10 min at 2,200×g (room temperature).

[3] = target: T1, human GLP1 receptor (Homo sapiens, UniProt P43220); assay: cAMP accumulation assay, functional agonism of human GLP1 receptor; type: cell-based; settings: HEK cells infected with human GLP1 receptor BacMam virus, HTRF cAMP; for Emax: HEK293, read-out: Human GLP-1R agonist cAMP Emax; for EC50: read-out: Human GLP-1R agonist cAMP pEC50 (converted)
T1 construct: expressed in transfected cells; host or cells: HEK cells, BacMam virus transduction
Method in brief: (§1)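 Agonist-driven cAMP production was quantified by homogeneous time-resolved fluorescence. Receptor expression in HEK cells came from a 24-hour BacMam infection, and cells were frozen ahead of the assay. Incubation lasted 45 min at 37° C in HBSS supplemented with 0.5 mM IBMX.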

[4] = target: T2, mouse GLP1 receptor (Mus musculus, UniProt O35659); assay: cAMP accumulation assay, functional agonism of mouse GLP1 receptor; type: cell-based; settings: HEK cells transiently transfected with mouse GLP1 receptor, HTRF cAMP
T2 construct: expressed in transfected cells; host or cells: HEK cells, transient transfection with GeneJuice
T2 sequence (O35659 22-463): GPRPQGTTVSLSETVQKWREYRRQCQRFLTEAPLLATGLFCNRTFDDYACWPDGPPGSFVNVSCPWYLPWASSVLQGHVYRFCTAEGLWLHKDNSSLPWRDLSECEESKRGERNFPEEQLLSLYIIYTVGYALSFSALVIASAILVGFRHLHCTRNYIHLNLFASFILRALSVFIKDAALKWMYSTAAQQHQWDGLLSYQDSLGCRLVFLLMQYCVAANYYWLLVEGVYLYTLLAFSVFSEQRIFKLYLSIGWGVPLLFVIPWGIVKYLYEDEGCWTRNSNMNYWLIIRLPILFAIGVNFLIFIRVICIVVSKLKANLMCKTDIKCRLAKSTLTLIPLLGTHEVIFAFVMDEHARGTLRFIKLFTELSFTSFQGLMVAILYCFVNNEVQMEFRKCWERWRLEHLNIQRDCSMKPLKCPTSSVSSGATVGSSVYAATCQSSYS

[5] = Stability of peptides in Fasted-State Simulated Intestinal Fluid (FaSSIF); type: in vitro ADME; settings: FaSSIF with 10 mg/ml pancreatin; t=30 mins, 37° C., pH 6.5, 10 mg/ml pancreatin
Protocol: Stability of peptides was tested in Fasted-State Simulated Intestinal Fluid (FaSSIF) prepared according to manufacturer's protocol (Biorelevant, art.no. FFF01, pH 6.5). […] FaSSIF was pre-incubated for 15 min at 37° C. and spiked with test and reference item working solutions. Experiments were conducted in duplicate in a non-serial manner. The total incubation volume per replicate was 150 μl. Sampling time points for test items were 0, 0.5, 2, 5, 10, 15 and 30 min. All samples and calibration standards (prepared in FaSSIF) were precipitated by addition of 300 μl precipitant (ACN / 2% acetic acid / 0.2% HFBA, (precipitation reagent, PR)) containing internal standard (ISTD) to 150 μl sample. After incubation for 1 h at room temperature all samples were centrifuged for 10 min at 2,200×g (room temperature).

[6] = target: T3, human GLP2 receptor (Homo sapiens, UniProt O95838); assay: cAMP accumulation assay, functional agonism of human GLP2 receptor; type: cell-based; settings: HEK cells infected with human GLP2 receptor BacMam virus, HTRF cAMP; for Emax: HEK293, read-out: Human GLP-2R agonist cAMP Emax; for EC50: read-out: Human GLP-2R agonist cAMP pEC50 (converted)
T3 construct: expressed in transfected cells; host or cells: HEK cells, BacMam virus transduction
T3 sequence (O95838 1-553): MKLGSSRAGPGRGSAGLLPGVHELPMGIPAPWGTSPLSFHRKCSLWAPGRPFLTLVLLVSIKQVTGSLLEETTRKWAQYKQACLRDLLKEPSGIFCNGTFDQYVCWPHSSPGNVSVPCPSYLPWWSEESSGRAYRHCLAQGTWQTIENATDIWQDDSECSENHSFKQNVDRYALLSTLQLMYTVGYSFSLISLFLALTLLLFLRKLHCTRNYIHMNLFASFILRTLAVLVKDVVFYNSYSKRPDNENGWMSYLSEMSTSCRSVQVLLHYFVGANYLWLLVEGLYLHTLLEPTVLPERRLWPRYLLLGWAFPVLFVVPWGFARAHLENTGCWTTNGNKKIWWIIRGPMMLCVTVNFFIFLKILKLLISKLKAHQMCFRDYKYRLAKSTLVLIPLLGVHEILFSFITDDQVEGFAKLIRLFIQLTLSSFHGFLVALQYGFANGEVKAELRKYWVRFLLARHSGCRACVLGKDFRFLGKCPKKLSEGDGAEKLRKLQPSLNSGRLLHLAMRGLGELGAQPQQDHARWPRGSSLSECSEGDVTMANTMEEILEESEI
Method in brief: as §1

[7] = target: T4, mouse GLP2 receptor (Mus musculus, UniProt Q5IXF8); assay: cAMP accumulation assay, functional agonism of mouse GLP2 receptor; type: cell-based
T4 construct: expressed in transfected cells; host or cells: HEK cells, transient transfection with GeneJuice
T4 sequence (Q5IXF8 1-512): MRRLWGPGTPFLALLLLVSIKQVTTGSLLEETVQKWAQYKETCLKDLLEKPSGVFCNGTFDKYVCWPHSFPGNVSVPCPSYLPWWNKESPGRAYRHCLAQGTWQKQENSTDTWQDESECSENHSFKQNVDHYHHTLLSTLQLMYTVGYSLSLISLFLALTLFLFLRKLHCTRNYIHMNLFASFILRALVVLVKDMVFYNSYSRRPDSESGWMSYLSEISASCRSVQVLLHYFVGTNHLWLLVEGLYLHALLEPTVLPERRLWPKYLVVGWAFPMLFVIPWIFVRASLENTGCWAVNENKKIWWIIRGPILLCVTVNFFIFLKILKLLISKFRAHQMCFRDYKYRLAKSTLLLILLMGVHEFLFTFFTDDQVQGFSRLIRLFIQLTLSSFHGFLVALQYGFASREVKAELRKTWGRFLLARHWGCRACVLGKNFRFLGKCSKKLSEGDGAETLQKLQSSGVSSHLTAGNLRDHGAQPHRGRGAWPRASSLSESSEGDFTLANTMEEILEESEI
Method in brief: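 pEC50 values come from four-parameter fits of HTRF cAMP signal, read after lysis and 1 h RT incubation. Compounds were incubated 45 min at 37 °C with previously frozen, transiently transfected HEK cells (8000/well) in HBSS containing 0.5 mM IBMX.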

[8] = in vitro; settings: Sprague Dawley, rat, real gastrointestinal fluid or homogenate

T1 sequence (P43220 24-463): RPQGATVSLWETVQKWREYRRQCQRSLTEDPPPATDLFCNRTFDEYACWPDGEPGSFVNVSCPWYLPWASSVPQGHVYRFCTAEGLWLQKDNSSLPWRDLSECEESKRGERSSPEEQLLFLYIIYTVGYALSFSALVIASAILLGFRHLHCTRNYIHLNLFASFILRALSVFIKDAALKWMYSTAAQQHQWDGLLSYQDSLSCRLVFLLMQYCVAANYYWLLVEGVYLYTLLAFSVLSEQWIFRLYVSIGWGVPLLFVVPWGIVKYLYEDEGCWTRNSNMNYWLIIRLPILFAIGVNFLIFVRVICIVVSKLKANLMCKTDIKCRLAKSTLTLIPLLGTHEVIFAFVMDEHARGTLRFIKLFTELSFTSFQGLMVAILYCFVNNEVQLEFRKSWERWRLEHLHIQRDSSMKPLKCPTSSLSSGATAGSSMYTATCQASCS

| Structure (SMILES) | remaining at 0.5 h [1] | remaining at 0.5 h [2] | Emax [3] | EC50 [3] | Emax ([4]; HEK293, read-out: Mouse GLP-1R agonist cAMP Emax) | EC50 ([4]; read-out: Mouse GLP-1R agonist cAMP pEC50 (converted)) | remaining at 0.5 h [5] | Emax [6] | EC50 [6] | Emax ([7]; HEK293, HEK cells transiently transfected with mouse GLP2 receptor, HTRF cAMP, read-out: Mouse GLP-2R agonist cAMP Emax) | EC50 ([7]; HEK cells transiently transfected with mouse GLP2 receptor, HTRF cAMP, read-out: Mouse GLP-2R agonist cAMP pEC50 (converted)) | EC50 [7] | Emax ([7]; HEK293, read-out: Mouse GLP-2R agonist cAMP Emax) | remaining at 0.5 h [8] |
| --- | --- | --- | --- | --- | --- | --- | --- | --- | --- | --- | --- | --- | --- | --- |
| CCCC[C@@H]1NC(=O)[C@H](CCC(=O)O)NC(=O)[C@@H](NC(=O)[C@H](CO)NC(=O)[C@H](Cc2ccccc2)NC(=O)[C@H](CO)NC(=O)CNC(=O)[C@H](Cc2nn[nH]n2)NC(=O)C(C)(C)C(=O)NCCc2c[nH]cn2)CCCCNC(=O)C[C@@H](C(=O)N[C@H](C(=O)N[C@@H](CC(C)C)C(=O)N[C@@H](CC(=O)O)C(=O)N[C@H]2CCC(=O)NCCCC[C@@H](C(=O)N[C@@H](CC(=O)O)C(=O)N[C@@H](Cc3ccccc3)C(=O)N[C@H](C(=O)N[C@@H](CC(N)=O)C(=O)N[C@@H](Cc3c[nH]c4ccccc34)C(=O)N[C@@H](CC(C)C)C(=O)N[C@H](C(=O)N[C@@H](CCC(N)=O)C(=O)N[C@H](C(=O)N[C@H]3CCC(=O)NCCCC[C@@H](C(N)=O)NC(=O)[C@H]([C@@H](C)O)NC(=O)[C@H]([C@@H](C)CC)NC3=O)[C@@H](C)O)[C@@H](C)CC)[C@@H](C)CC)NC(=O)[C@H](C)NC(=O)[C@H](C)NC(=O)[C@H](CCCCN)NC2=O)[C@@H](C)CC)NC(=O)[C@@H](Cc2ccccc2)NC1=O [Example 2] ({Malonyl(2,2-Me2,histaminyl)}-[Ala(1H-tetrazol-5-yl)]GSFSKE[Nle][dF]DILDEKAAKDFINWLIQTEITK-NH2; lactam 6-10, 14-18, 28-31 (inferred); C-terminus assumed) | 22.5% | 34% | 92.5% | 398 pM | 94.3% | 39.8 pM | 11% | 103% | 31.6 pM | 91.6% | 1000 pM |  |  |  |
| CCCC[C@@H]1NC(=O)[C@H](CCC(=O)O)NC(=O)[C@@H](NC(=O)[C@H](CO)NC(=O)[C@](C)(Cc2ccccc2F)NC(=O)[C@H](CO)NC(=O)[C@@H](C)NC(=O)[C@H](Cc2nn[nH]n2)NC(=O)C(C)(C)C(=O)NCCc2c[nH]cn2)CCCCNC(=O)C[C@@H](C(=O)N[C@H](C(=O)N[C@@H](CC(C)C)C(=O)N[C@@H](CC(=O)O)C(=O)N[C@H]2CCC(=O)NCCCC[C@@H](C(=O)N[C@@H](CC(=O)O)C(=O)N[C@@H](Cc3ccccc3)C(=O)N[C@H](C(=O)N[C@H]3CCCCNC(=O)C[C@@H](C(=O)N[C@H]4CCC(=O)NCCCC[C@@H](C(N)=O)NC(=O)[C@H]([C@@H](C)O)NC(=O)[C@H]([C@@H](C)CC)NC(=O)[C@H](CCCCN)NC4=O)NC(=O)[C@H]([C@@H](C)CC)NC(=O)[C@H](CC(C)C)NC(=O)[C@H](Cc4c[nH]c5ccccc45)NC3=O)[C@@H](C)CC)NC(=O)[C@H](C)NC(=O)[C@H](C)NC(=O)[C@H](CCCCN)NC2=O)[C@@H](C)CC)NC(=O)[C@@H](Cc2ccccc2)NC1=O [Example 55] ({Malonyl(2,2-Me2,histaminyl)}-[Ala(1H-tetrazol-5-yl)][dA]S[αMePhe(2-F)]SKE[Nle][dF]DILDEKAAKDFIKWLIDEKITK-NH2; lactam 6-10, 14-18, 22-26, 27-31 (inferred); C-terminus assumed) |  |  | 97.9% | 50.1 pM |  |  |  | 103% | 10 pM |  |  | 316 pM | 101% | 64.9% |
